From patent publication US7357832B2, “Water base pigment ink for ink-jet recording, ink cartridge accommodating the same, and ink-jet recording method” (Brother Kogyo Kabushiki Kaisha, priority 2004, dated 2008)

Assay: saturation vapor pressure
Assay type: physicochemical

| SMILES | Saturation vapor pressure [hPa] |
| --- | --- |
| CCCOC(C)COC(C)CO (centres unmarked) [DPGPE, dipropylene glycol-n-propyl ether] | 0.03 |
| CCOCC(C)O (centres unmarked) [PGEE, propylene glycol ethyl ether] | 9.4 |
| COCC(C)O (centres unmarked) [PGME, propylene glycol methyl ether] | 8.71 |
| COCC(C)OC(C)=O (centres unmarked) [PGMEA, propylene glycol methyl ether acetate] | 5 |
| CCCOCC(C)O (centres unmarked) [PGPE, propylene glycol-n-propyl ether] | 2.21 |
